{"source": "patent US20240279220A1", "about": "“INDOLE COMPOUNDS AND METHODS OF USE” (Genzyme Corporation, priority 2021, published 2024)", "key": {"[1]": {"target": "T1, CFTR (Homo sapiens, UniProt P13569, DEL508-508)", "T1 construct": "Primary human bronchial epithelial cells from a ΔF508 homozygous CF donor; host or cells: primary human bronchial epithelial cells (CF-HBE), ΔF508 homozygous donor", "T1 sequence (P13569 with tags, fused parts or gaps DEL508-508)": "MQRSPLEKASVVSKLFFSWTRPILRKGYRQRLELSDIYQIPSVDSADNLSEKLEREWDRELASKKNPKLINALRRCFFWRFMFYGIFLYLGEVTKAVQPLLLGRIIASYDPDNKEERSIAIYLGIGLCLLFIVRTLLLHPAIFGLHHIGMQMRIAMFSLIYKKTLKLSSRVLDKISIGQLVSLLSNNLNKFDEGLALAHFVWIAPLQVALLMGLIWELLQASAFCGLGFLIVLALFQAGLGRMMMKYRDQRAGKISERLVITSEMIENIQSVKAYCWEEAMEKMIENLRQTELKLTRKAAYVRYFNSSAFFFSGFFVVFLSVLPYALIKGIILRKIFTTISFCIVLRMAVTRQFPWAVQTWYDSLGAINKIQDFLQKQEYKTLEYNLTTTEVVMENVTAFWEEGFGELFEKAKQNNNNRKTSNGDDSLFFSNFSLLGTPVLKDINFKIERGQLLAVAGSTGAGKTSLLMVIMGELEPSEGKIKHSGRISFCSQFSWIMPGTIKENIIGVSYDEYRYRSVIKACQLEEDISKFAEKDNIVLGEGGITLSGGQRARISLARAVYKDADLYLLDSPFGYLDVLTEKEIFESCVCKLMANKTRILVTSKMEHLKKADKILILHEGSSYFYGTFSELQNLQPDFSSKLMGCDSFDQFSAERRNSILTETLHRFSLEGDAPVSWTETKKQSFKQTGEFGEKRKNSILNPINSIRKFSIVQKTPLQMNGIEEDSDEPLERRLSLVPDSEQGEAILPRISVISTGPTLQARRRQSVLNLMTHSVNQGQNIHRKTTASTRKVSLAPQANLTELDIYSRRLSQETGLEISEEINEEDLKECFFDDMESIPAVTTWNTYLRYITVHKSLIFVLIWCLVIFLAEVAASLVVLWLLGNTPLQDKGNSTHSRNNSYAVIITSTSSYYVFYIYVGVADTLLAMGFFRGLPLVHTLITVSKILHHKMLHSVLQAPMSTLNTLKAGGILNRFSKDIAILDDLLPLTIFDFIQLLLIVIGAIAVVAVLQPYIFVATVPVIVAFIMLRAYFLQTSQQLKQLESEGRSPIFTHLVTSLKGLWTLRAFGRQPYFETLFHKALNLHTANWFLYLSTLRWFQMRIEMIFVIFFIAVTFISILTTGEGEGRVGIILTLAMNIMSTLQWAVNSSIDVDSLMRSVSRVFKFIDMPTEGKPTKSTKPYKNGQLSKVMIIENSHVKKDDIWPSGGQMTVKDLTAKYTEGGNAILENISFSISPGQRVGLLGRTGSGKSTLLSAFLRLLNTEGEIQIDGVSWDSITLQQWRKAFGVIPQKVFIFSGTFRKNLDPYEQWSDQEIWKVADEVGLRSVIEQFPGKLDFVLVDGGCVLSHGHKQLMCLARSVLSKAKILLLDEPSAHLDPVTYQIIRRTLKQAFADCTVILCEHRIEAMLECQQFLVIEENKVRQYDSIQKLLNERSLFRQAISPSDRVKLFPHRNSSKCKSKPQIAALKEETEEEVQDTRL", "assay": "TECC24 recording of CFTR-mediated transepithelial chloride transport in ΔF508 homozygous CF-HBE cells", "type": "cell-based", "settings": "10 μM test agent, 48 hours incubation, AUC of forskolin-stimulated IEQ divided by vehicle AUC, primary CF-HBE cells", "procedure,_shortened": "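ΔF508 homozygous primary bronchial epithelia exposed to compound 48 h at 36.5 °C, then transepithelial voltage and resistance recorded in pH 7.4 buffer with benzamil (10 μM), forskolin (10 μM) stimulation and CFTRinh-172 (20 μM) stop. Equivalent Cl⁻ current AUC vs vehicle gives efficacy; EC50 fitted with Hill slope fixed at 1.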"}, "[2]": {"test_system": "NBD1/3D", "assay": "Aggregation analysis using differential static light scattering (DSLS), NBD1 thermal stability", "type": "binding, Human", "settings": "ΔTagg versus DMSO control; compound at 100 μM", "procedure,_shortened": "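Thermal stabilisation reported as ΔTagg, i.e. aggregation temperature relative to averaged DMSO wells. Tagg came from the inflection of differential static light scattering imaged 25–70 °C while NBD1 (0.2 mg/ml, Tris pH 7.6 buffer containing ATP, MgCl2, DTT, glycerol) was ramped 1 °C/min.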"}}, "data": [{"smiles": "CC(c1cn(C)c(-c2cc(Oc3c(F)cc4[nH]ccc4c3F)ccc2F)n1)c1cccc(CCC(=O)O)c1F", "note": "(single isomer, unassigned) [Example 278B, 3-(3-(1-(2-(5-((4,6-difluoro-1H-indol-5-yl)oxy)-2-fluorophenyl)-1-methyl-1H-imidazol-4-yl)ethyl)-2-fluorophenyl)propanoic acid]", "values": [{"measurement": "TECC24 @ 10 μM over DMSO (AUC fold over DMSO)", "setting": "[1]", "result": "A (“A” refers to AUC @10 uM >= 12)"}, {"measurement": "DSLS NBD1/3D Human Stability delta-T (° C.) @ 100 (μM)", "setting": "[2]", "result": "B (B: 5-10° C.)"}]}, {"smiles": "CC(c1c[nH]c(-c2cc(Oc3c(F)cc4[nH]ccc4c3CC(F)F)ccc2F)n1)c1cccc(CCC(=O)O)c1F", "note": "(single isomer, unassigned) [Example 129A, 3-(3-(1-(2-(5-((4-(2,2-difluoroethyl)-6-fluoro-1H-indol-5-yl)oxy)-2-fluorophenyl)-1H-imidazol-4-yl)ethyl)-2-fluorophenyl)propanoic acid]", "values": [{"measurement": "TECC24 @ 10 μM over DMSO (AUC fold over DMSO)", "setting": "[1]", "result": "A (“A” refers to AUC @10 uM >= 12)"}, {"measurement": "DSLS NBD1/3D Human Stability delta-T (° C.) @ 100 (μM)", "setting": "[2]", "result": "A (A: T ≥ 10° C.)"}]}, {"smiles": "CP(C)(=O)c1c(Oc2cccc(-c3nc(C(O)c4cccc(CCC(=O)O)c4)cs3)c2)c(F)cc2[nH]ccc12", "note": "(stereo not shown) [Example 97, 3-(3-((2-(3-((4-(Dimethylphosphoryl)-6-fluoro-1H-indol-5-yl)oxy)phenyl)thiazol-4-yl)(hydroxy)methyl)phenyl)propanoic acid]", "values": [{"measurement": "TECC24 @ 10 μM over DMSO (AUC fold over DMSO)", "setting": "[1]", "result": "C (“C” refers to AUC @ 10 uM <= 4)"}, {"measurement": "DSLS NBD1/3D Human Stability delta-T (° C.) @ 100 (μM)", "setting": "[2]", "result": "B (B: 5-10° C.)"}]}, {"smiles": "O=C(O)CCc1cccc(Cc2cnc(-c3cc(Oc4c(F)c(F)c5[nH]ccc5c4F)ccc3F)[nH]2)c1", "note": "[Example 123, 3-(3-((2-(2-fluoro-5-((4,6,7-trifluoro-1H-indol-5-yl)oxy)phenyl)-1H-imidazol-5-yl)methyl)phenyl)propanoic acid]", "values": [{"measurement": "TECC24 @ 10 μM over DMSO (AUC fold over DMSO)", "setting": "[1]", "result": "B (“B” refers to AUC @10 uM between 4-12)"}, {"measurement": "DSLS NBD1/3D Human Stability delta-T (° C.) @ 100 (μM)", "setting": "[2]", "result": "B (B: 5-10° C.)"}]}, {"smiles": "CC(c1cnc(-c2cc(Oc3c(F)cc4[nH]ccc4c3CN3CCCS3(=O)=O)ccc2F)[nH]1)c1cccc(CCC(=O)O)c1F", "note": "(single isomer, unassigned) [Example 134B, 3-(3-(1-(2-(5-((4-((1,1-dioxidoisothiazolidin-2-yl)methyl)-6-fluoro-1H-indol-5-yl)oxy)-2-fluorophenyl)-1H-imidazol-5-yl)ethyl)-2-fluorophenyl)propanoic acid]", "values": [{"measurement": "TECC24 @ 10 μM over DMSO (AUC fold over DMSO)", "setting": "[1]", "result": "A (“A” refers to AUC @10 uM >= 12)"}, {"measurement": "DSLS NBD1/3D Human Stability delta-T (° C.) @ 100 (μM)", "setting": "[2]", "result": "A (A: T ≥ 10° C.)"}]}]}
